The subject of one data set is HBV. The data set can be described thus: Antiviral. The format is cell-based. As to conditions: Hepatitis B virus, HePAD38, read-out: IC50 (HBV DNA released from cells).
For data set [1] the following is noted: Balb/cJ mice, s.c. 75 mg/kg.
The conditions of data set [2]: terminal cytosine of 3TC; stated without experiment, no reference given; cited from earlier work.

This is an account of results in article PMC11044016 (Journal of the American Chemical Society, 2023).

A word on the IC50: it is the midpoint of a concentration-inhibition curve. Consider `Nc1ccn([C@H]2CS[C@@H](CO)O2)c(=O)n1` [3TC, 2’,3’-Dideoxy-3’-Thiacytidine], for which, in the data set on HBV, the IC50 came to 170 nM. For the same compound, the “3TC plasma concentration after day 3” value in data set [1] was “no drug detectable”. Besides, the pKa result in data set [2] is on record as “around 7.2”.
